Source: patent publication US20230399341A1, “7-PHENYL SUBSTITUTED 2-AMINOQUINAZOLINE INHIBITORS OF HPK1” (MERCK SHARP & DOHME LLC, priority 2020, published 2023)

Target: T1, Human HPK1, catalytic domain (Homo sapiens, UniProt Q92918)
T1 sequence (Q92918 1-346): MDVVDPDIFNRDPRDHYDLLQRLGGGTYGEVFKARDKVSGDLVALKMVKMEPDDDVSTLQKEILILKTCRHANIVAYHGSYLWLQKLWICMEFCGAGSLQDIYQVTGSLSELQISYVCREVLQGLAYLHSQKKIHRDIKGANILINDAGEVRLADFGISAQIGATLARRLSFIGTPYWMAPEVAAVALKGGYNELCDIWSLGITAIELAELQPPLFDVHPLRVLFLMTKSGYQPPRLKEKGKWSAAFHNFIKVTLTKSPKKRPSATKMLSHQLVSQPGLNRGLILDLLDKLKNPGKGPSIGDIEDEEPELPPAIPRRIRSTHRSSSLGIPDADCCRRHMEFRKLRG
Test: HPK1-SLP76 TR-FRET Assay
Type: biochemical
Settings: 75 pM HPK1, ATP 10 uM, SLP76 10 nM, 30 min pre-incubation, 60 min reaction

Compound | IC50 [nM]
CNC(=O)c1ccc(Nc2ncc3c(N)c(F)c(-c4cnc5c(c4C)NCCO5)cc3n2)cc1 [Compound 2-23, 4-{[5-amino-6-fluoro-7-(8-methyl-2,3-dihydro-1H-pyrido[2,3-b][1,4]oxazin-7-yl)quinazolin-2-yl]amino}-N-methylbenzamide] | 0.0508
Cc1c(-c2cc3nc(Nc4ccc(CS(C)(=O)=O)cc4)ncc3c(N)c2F)cnc2c1NCCO2 [Compound 2-24, 6-fluoro-7-(8-methyl-2,3-dihydro-1H-pyrido[2,3-b][1,4]oxazin-7-yl)-N˜2˜-{4-[(methylsulfonyl)methyl]phenyl}quinazoline-2,5-diamine] | 0.0508
Cc1c(-c2cc3nc(Nc4ccccc4)ncc3c(N)c2F)cnc2c1NCCO2 [Compound 2-25, 6-fluoro-7-(8-methyl-2,3-dihydro-1H-pyrido[2,3-b][1,4]oxazin-7-yl)-N~2~- phenylquinazoline-2,5-diamine] | 0.275
Cc1c(-c2cc3nc(Nc4ccccc4C4CC4)ncc3c(N)c2F)cnc2c1NCCO2 [Compound 2-26, N~2~-(2-cyclopropylphenyl)-6-fluoro-7-(8-methyl-2,3-dihydro-1H-pyrido[2,3-b][1,4]oxazin-7-yl)quinazoline-2,5-diamine] | 11.5
COc1ncccc1Nc1ncc2c(N)c(F)c(-c3cnc4c(c3C)NCCO4)cc2n1 [Compound 2-27, 6-fluoro-N~2~-(2-methoxypyridin-3-yl)-7-(8-methyl-2,3-dihydro-1H-pyrido[2,3-b][1,4]oxazin-7-yl)quinazoline-2,5-diamine] | 0.117
CC(=O)NCc1ccc(Nc2ncc3c(N)c(F)c(-c4cnc5c(c4C)NCCO5)cc3n2)cc1 [Compound 2-30, N-[(4-{[5-amino-6-fluoro-7-(8-methyl-2,3-dihydro-1H-pyrido[2,3-b][1,4]oxazin-7-yl)quinazolin-2-yl]amino}phenyl)methyl] acetamide] | 0.0811
Cc1c(-c2cc3nc(Nc4ccccc4Cl)ncc3c(N)c2F)cnc2c1NCCO2 [Compound 2-31, N~2~-(2-chlorophenyl)-6-fluoro-7-(8-methyl-2,3-dihydro-1H-pyrido[2,3-b][1,4]oxazin-7-yl)quinazoline-2,5-diamine] | 4.62
Cc1ncccc1Nc1ncc2c(N)c(F)c(-c3cnc4c(c3C)NCCO4)cc2n1 [Compound 2-32, 6-fluoro-7-(8-methyl-2,3-dihydro-1H-pyrido[2,3-b][1,4]oxazin-7-yl)-N~2~- (2-methylpyridin-3-yl)quinazoline-2,5-diamine] | 0.669
Cc1c(-c2cc3nc(Nc4cccc(S(=O)(=O)NC(C)(C)C)c4)ncc3c(N)c2F)cnc2c1NCCO2 [Compound 2-33, 3-{[5-amino-6-fluoro-7-(8-methyl-2,3-dihydro-1H-pyrido[2,3-b][1,4]oxazin-7-yl)quinazolin-2-yl]amino}-N-tert-butylbenzene-1-sulfonamide] | 0.186
CNS(=O)(=O)c1cccc(Nc2ncc3c(N)c(F)c(-c4cnc5c(c4C)NCCO5)cc3n2)c1 [Compound 2-34] | 0.118
COc1cc2c(cc1Nc1ncc3c(N)cc(-c4cnccc4C)cc3n1)CNCC2 [Compound 2-37, N^2-(6-methoxy-1,2,3,4-tetrahydroisoquinolin-7-yl)-7-(4-methylpyridin-3-yl)quinazoline-2,5-diamine] | 0.372
COc1cc2c(cc1Nc1ncc3c(N)cc(-c4c(C)cccc4F)cc3n1)CN(C)CC2 [Compound 2-38, 7-(2-fluoro-6-methylphenyl)-N^2-(6-methoxy-2-methyl-1,2,3,4-tetrahydroisoquinolin-7-yl)quinazoline-2,5-diamine] | 35.1
COc1cc2c(cc1Nc1ncc3c(N)cc(-c4cncc(N)c4C)cc3n1)CN(C)CC2 [Compound 2-39, 7-(5-amino-4-methylpyridin-3-yl)-N~2~- (6-methoxy-2-methyl-1,2,3,4-tetrahydroisoquinolin-7-yl)quinazoline-2,5-diamine] | 0.942
COc1cc2c(cc1Nc1ncc3c(N)cc(-c4cnc5c(c4C)NCCO5)cc3n1)CN(C)CC2 [Compound 2-40, N~2~-(6-methoxy-2-methyl-1,2,3,4-tetrahydroisoquinolin-7-yl)-7-(8-methyl-2,3-dihydro-1H-pyrido[2,3-b][1,4]oxazin-7-yl)quinazoline-2,5-diamine] | 0.633
Cc1c(-c2cc3nc(Nc4ccc5c(c4)C(C)(C)OC5=O)ncc3c(N)c2F)cnc2c1NCCO2 [Compound 2-41, 5-{[5-amino-6-fluoro-7-(8-methyl-2,3-dihydro-1H-pyrido[2,3-b][1,4]oxazin-7-yl)quinazolin-2-yl]amino}-3,3-dimethyl-2-benzofuran-1(3H)-one] | 0.0761
Cc1c(-c2cc3nc(Nc4ccc5c(c4)CN(CC(C)(C)O)C5=O)ncc3c(N)c2F)cnc2c1NCCO2 [Compound 2-42, 5-{[5-amino-6-fluoro-7-(8-methyl-2,3-dihydro-1H-pyrido[2,3-b][1,4]oxazin-7-yl)quinazolin-2-yl]amino}-2-(2-hydroxy-2-methylpropyl)-2,3-dihydro-1H-isoindol-1-one] | 0.153
Cc1c(-c2cc3nc(Nc4ccc5c(c4)CCS5(=O)=O)ncc3c(N)c2F)cnc2c1NCCO2 [Compound 2-43, 5-{[5-amino-6-fluoro-7-(8-methyl-2,3-dihydro-1H-pyrido[2,3-b][1,4]oxazin-7-yl)quinazolin-2-yl]amino}-2,3-dihydro-1H-1-benzothiophene-1,1-dione] | 0.0849
Cc1ccncc1-c1cc2nc(Nc3ccc(CS(C)(=O)=O)cc3)ncc2c(N)c1F [Compound 2-44, 6-fluoro-7-(4-methylpyridin-3-yl)-N~2~- {4-[(methylsulfonyl)methyl]phenyl}quinazoline-2,5-diamine] | 0.194
COc1cc2c(cc1Nc1ncc3c(N)c(F)c(-c4cnc5c(c4C)NCCO5)cc3n1)CN(C)CC21CC1 [Compound 2-45, 6-fluoro-N~2~-(6′-methoxy-2′-methyl-2′,3′-dihydro-1′H-spiro[cyclopropane-1,4′-isoquinolin]-7′-yl)-7-(8-methyl-2,3-dihydro-1H-pyrido[2,3-b][1,4]oxazin-7-yl)quinazoline-2,5-diamine] | 0.163
COc1cc2c(cc1Nc1ncc3c(N)c(F)c(-c4cnc5ncsc5c4)cc3n1)CN(C)CC2 [Compound 2-47, 6-fluoro-N~2~-(6-methoxy-2-methyl-1,2,3,4-tetrahydroisoquinolin-7-yl)-7-([1,3]thiazolo[4,5-b]pyridin-6-yl)quinazoline-2,5-diamine] | 24.6
COc1cc2c(cc1Nc1ncc3c(N)c(F)c(-c4cc5oc(=O)[nH]c5cc4C)cc3n1)CN(C)CC2 [Compound 2-49, 6-(5-amino-6-fluoro-2-((6-methoxy-2-methyl-1,2,3,4-tetrahydroisoquinolin-7-yl)amino)quinazolin-7-yl)-5-methylbenzo[d]oxazol-2(3H)-one] | 10.5
COc1cc(CS(C)(=O)=O)ccc1Nc1ncc2c(N)c(F)c(-c3cnc4c(c3C)NCCO4)cc2n1 [Compound 2-50, 6-fluoro-N2-(2-methoxy-4-((methylsulfonyl)methyl)phenyl)-7-(8-methyl-2,3-dihydro-1H-pyrido[2,3-b][1,4]oxazin-7-yl)quinazoline-2,5-diamine] | 0.0594
COc1cc2c(cc1Nc1ncc3c(N)c(F)c(-c4cc(C#N)ccc4C)cc3n1)CN(C)CC2 [Compound 2-51, 3-(5-amino-6-fluoro-2-((6-methoxy-2-methyl-1,2,3,4-tetrahydroisoquinolin-7-yl)amino)quinazolin-7-yl)-4-methylbenzonitrile] | 474
Cc1ccc(C#N)cc1-c1cc2nc(Nc3ccc(S(C)(=O)=O)cc3)ncc2c(N)c1F [Compound 2-52, 3-(5-amino-6-fluoro-2-{[4-(methylsulfonyl)phenyl]amino}quinazolin-7-yl)-4-methylbenzonitrile] | 424
Cc1ccc(C#N)cc1-c1cc2nc(Nc3ccc(CS(C)(=O)=O)cc3)ncc2c(N)c1F [Compound 2-53, 3-[5-amino-6-fluoro-2-({4-[(methylsulfonyl)methyl]phenyl}amino)quinazolin-7-yl]-4-methylbenzonitrile] | 131
COC1CC(NC(=O)c2ccc(Nc3ncc4c(N)c(F)c(-c5cnc6c(c5C)NCCO6)cc4n3)cc2)C1 (stereo not drawn) [Compound 2-58, 4-{[5-amino-6-fluoro-7-(8-methyl-2,3-dihydro-1H-pyrido[2,3-b][1,4]oxazin-7-yl)quinazolin-2-yl]amino}-N-(3-methoxycyclobutyl) benzamide] | 0.0791
Cc1c(-c2cc3nc(Nc4cc5c(cc4F)CCN(C)C5)ncc3c(N)c2F)cnc2c1NCCO2 [Compound 2-59, 6-fluoro-N~2~-(6-fluoro-2-methyl-1,2,3,4-tetrahydroisoquinolin-7-yl)-7-(8-methyl-2,3-dihydro-1H-pyrido[2,3-b][1,4]oxazin-7-yl)quinazoline-2,5-diamine] | 0.0508
COc1cc2c(cc1Nc1ncc3c(N)c(F)c(-c4ccc(-c5ncco5)cc4C)cc3n1)CN(C)CC2 [Compound 2-60, 6-fluoro-N~2~-(6-methoxy-2-methyl-1,2,3,4-tetrahydroisoquinolin-7-yl)-7-[2-methyl-4-(1,3-oxazol-2-yl)phenyl]quinazoline-2,5-diamine] | 469
COc1cc2c(cc1Nc1ncc3c(N)c(F)c(-c4cnc(-c5ncco5)cc4C)cc3n1)CN(C)CC2 [Compound 2-61, 6-fluoro-N~2~-(6-methoxy-2-methyl-1,2,3,4-tetrahydroisoquinolin-7-yl)-7-[4-methyl-6-(1,3-oxazol-2-yl)pyridin-3-yl]quinazoline-2,5-diamine] | 1.27
Cc1c(-c2cc3nc(Nc4cc5c(cc4Cl)CCN(C)C5)ncc3c(N)c2F)cnc2c1NCCO2 [Compound 2-64, N~2~-(6-chloro-2-methyl-1,2,3,4-tetrahydroisoquinolin-7-yl)-6-fluoro-7-(8-methyl-2,3-dihydro-1H-pyrido[2,3-b][1,4]oxazin-7-yl)quinazoline-2,5-diamine] | 0.782
